The values below come from patent US7199147B2, “Rho kinase inhibitors” (Dainippon Sumitomo Pharma Co., Ltd., priority 2001, dated 2007).

By melting point is commonly meant the temperature of the solid-liquid transition. For the molecule `Cc1n[nH]c2ccc(NC3CCNCC3)cc12`, the melting point is 175 to 177 °C. `OC1CCC(Oc2ccc3[nH]ncc3c2)C1` (stereo not shown) had a melting point of 147 to 148 °C. In turn, `Cc1c(O[C@H]2CC[C@@H](NC3CCCC3)CC2)ccc2[nH]ncc12` came in with a melting point of 153 to 155 °C. Regarding `CCS(=O)(=O)N1CCC(Nc2ccc3[nH]ncc3c2)CC1`, the melting point was 182 to 183 °C. Regarding `CSc1c(O)ccc2[nH]ncc12`, the melting point was in the range of 126 to 128 °C. Turning to `O=C(Nc1ccc2[nH]ncc2c1)C1CCOCC1`, the melting point was 286 to 288 °C (dec.). Molecule `CN(CC(=O)Nc1ccc2[nH]ncc2c1)Cc1ccccc1` registered a melting point of 159 to 160 °C. As for `c1ccc(CN2CCN(c3ccc4[nH]ncc4c3)CC2)cc1`, the melting point was 196 to 198 °C (dec.). `CC(C)CCCOc1ccc2[nH]ncc2c1` displayed a melting point of 124 to 126 °C. For the molecule `N[C@H]1CCC[C@H](Oc2ccc3[nH]ncc3c2)C1` (relative stereo), the melting point lay within 179 to 180 °C. The figure for `COc1ccc2ccccc2c1CNc1ccc2[nH]ncc2c1` is 183 to 185 °C; for `O=C(CN1CCCCC1)Nc1ccc2[nH]ncc2c1` it is 189 to 190 °C. Molecule `CC(C)COc1ccc2[nH]ncc2c1` showed a melting point of 151 to 153 °C. Molecule `Cc1c(OC2CCCNC2)ccc2[nH]ncc12` (stereo not shown) had a melting point of 183 to 185 °C. The figure for `O=S(=O)(c1ccccc1)N1CCC(Nc2ccc3[nH]ncc3c2)CC1` is 132 to 136 °C.

`CN(c1ccc2[nH]ncc2c1)C1CCN(Cc2ccccc2)CC1` showed a melting point of 152 to 154 °C. With `O=C1c2ccccc2C(=O)N1[C@H]1CC[C@@H](Oc2ccc3[nH]ncc3c2)CC1`, the melting point was 194 to 196 °C. Take `O=C(O)CCC(=O)Nc1ccc2[nH]ncc2c1`: the melting point was 218 to 220 °C (dec.). Consider `O=C(NC1CCN(Cc2ccccc2)C1)c1ccc2[nH]ncc2c1` (stereo not shown), for which the melting point was in the range of 187 to 189 °C.

`CSc1c(O[C@H]2CC[C@@H](N3C(=O)c4ccccc4C3=O)CC2)ccc2[nH]ncc12` showed a melting point of 211 to 212 °C. `c1cc2[nH]ncc2cc1OC1CCCN(C2CCCC2)CC1` (stereo not shown) gave a melting point of 138 to 140 °C.

`Cc1c(O[C@H]2CCC[C@H](NC3CCCC3)C2)ccc2[nH]ncc12` (relative stereo) registered a melting point of 110 to 112 °C. On to `CC(C)CCC(=O)Nc1ccc2[nH]ncc2c1`, for which the melting point is 215 to 216 °C (dec.). Take `c1cc2[nH]ncc2cc1OC1CCOCC1` [Example 44]: the melting point was 151 to 152 °C. For `Cn1ncc2cc(NC3CCN(Cc4ccccc4)CC3)ccc21` the value was 116 to 117 °C; for `Cc1c(OC2CCN(C(C)C)CC2)ccc2[nH]ncc12`, 134 to 136 °C. Molecule `Cc1n[nH]c2ccc(NC3CCN(Cc4ccccc4)CC3)cc12` came in with a melting point of 160 to 162 °C. For `CS(=O)(=O)N1CCC(C(=O)Nc2ccc3[nH]ncc3c2)CC1` the value was 291 to 293 °C (dec.). With `CCN[C@H]1CCC[C@H](Oc2ccc3[nH]ncc3c2)C1` (relative stereo), the melting point lay within 116 to 118 °C. Molecule `c1ccc(CN2CCC(CCNc3ccc4[nH]ncc4c3)CC2)cc1` returned a melting point of 117 to 118 °C. Take `CS(=O)(=O)N1CCC(Nc2ccc3[nH]ncc3c2)CC1`: the melting point is 219 to 220 °C (dec.).

The molecule `CN(C)CCC(=O)Nc1ccc2[nH]ncc2c1` displayed a melting point of 152 to 153 °C. On to `O=C(c1ccc2[nH]ncc2c1)N1CCNCC1`, for which the melting point is 190 to 191 °C. Take `O=C(C=C1CCN(Cc2ccccc2)CC1)Nc1ccc2[nH]ncc2c1`: the melting point lay within 169 to 172 °C. In the case of `CCN[C@H]1CC[C@H](Oc2ccc3[nH]ncc3c2C)CC1`, the melting point lay within 150 to 151 °C. For `N[C@H]1CC[C@@H](Oc2ccc3[nH]ncc3c2)CC1` the value was 144 to 146 °C. As for `CN(C)C(=O)c1ccccc1Nc1ccc2[nH]ncc2c1`, the melting point was 234 to 235 °C (dec.).
